Values after ≈ are worked out from the molar mass of the structure shown. Where only a bound is given, the exact number is not on record here.

Data set [1] concerns human erythrocytes. Put plainly: Hemolysis assay, HC50 determination. It is filed as cell-based. The procedure: Hemolysis assay (human erythrocytes)–HC50 determination. These were performed as described previously.
In data set [2] the test system is E. coli ATCC 25922. Put plainly: CO-ADD MIC assay, E. coli ATCC 25922. It is filed as cell-based. To be noted: Escherichia coli, ATCC25922, Table S1. The text has this:
(§1) The N-arytriazole and N-naphthyltriazole peptidomimetics were subjected to antimicrobial screening. […] Vancomycin, colistin, fluconazole, and tamoxifen were used as positive controls (see Table 1 for details).
(§2) Secondary screening (MRSA and Gram-negative bacteria) and cytotoxicity assay–performed by the Community for Open Antimicrobial Drug Discovery (CO-ADD). Samples were provided to CO-ADD [29] for antimicrobial screening by whole cell growth inhibition assays.
(§3) Bacterial Inhibition–MIC Assay. These were performed as described previously.

The subject of data set [3] is P. aeruginosa ATCC 27853. Put plainly: CO-ADD MIC assay, P. aeruginosa ATCC 27853. It is filed as cell-based. To be noted: Pseudomonas aeruginosa, ATCC27853, Table S1.
Text: as §1, §2, §3

The subject of data set [4] is E. coli ATCC 25922. Put plainly: Primary MIC assay, E. coli ATCC 25922. The note with it: Escherichia coli, ATCC25922; Table 1; read-out: MIC E. coli ATCC 25922. It is filed as cell-based.
Data set [5] deals with Cryptococcus neoformans var. grubii ATCC 208821. As to the kind of experiment: CO-ADD MIC assay, C. neoformans var. grubii ATCC 208821. It counts as cell-based. The note with it: for MIC: Cryptococcus neoformans, ATCC208821, Table S1.
Text: as §1, §2

The subject of data set [6] is S. aureus NCTC 10442. Put plainly: Primary MIC assay, S. aureus NCTC 10442 (MRSA). It counts as cell-based. To be noted: Staphylococcus aureus; Table 1; MRSA; read-out: MIC S. aureus NCTC 10442. The procedure: as §1
(§4) Primary screening (Gram-positive bacteria). Primary MIC assays were performed as described by the Clinical and Laboratory Standards Institute for aerobic and anaerobic bacteria. MIC values for vancomycin were within acceptable QC ranges.

Data set [7] has as its system S. aureus ATCC 43300. Put plainly: CO-ADD MIC assay, S. aureus ATCC 43300 (MRSA). It is filed as cell-based. To be noted: Staphylococcus aureus, Table S1; MRSA; CO-ADD; read-out: MIC S. aureus ATCC 43300.
Text: as §1, §2, §3

Data set [8] deals with C. difficile ATCC 700057. Put plainly: Primary MIC assay, C. difficile ATCC 700057. It counts as cell-based, Clostridioides difficile. To be noted: Clostridioides difficile, ATCC700057; Table 1; read-out: MIC C. difficile ATCC 700057. The procedure:
as §1, §4

Data set [9] concerns C. difficile 132 (RT027). As to the kind of experiment: Primary MIC assay, C. difficile 132 (RT027). The note with it: Clostridioides difficile; Table 1; read-out: MIC C. difficile 132 (RT027). It is filed as cell-based, Clostridioides difficile. The procedure: as §1, §4
A short description of data set [10]: Cytotoxicity (CC50) assay by CO-ADD. It is filed as cell-based, human. To be noted: human, HEK293 cells (ATCC CRL-1573); Table 1; cytotoxicity on HEK293 cells, tested at ≤32 µg/mL.
Text: as §1, §2
Cytotoxicity Assay. These were performed as described previously.

Data set [11] deals with C. albicans ATCC 90028. As to the kind of experiment: CO-ADD MIC assay, C. albicans ATCC 90028. The note with it: Candida albicans, ATCC90028, Table S1. It counts as cell-based.
Text: as §1, §2

Data set [12] has as its system S. pneumoniae ATCC 49619. Put plainly: Primary MIC assay, S. pneumoniae ATCC 49619. It is filed as cell-based, Streptococcus pneumoniae. The note with it: Streptococcus pneumoniae, ATCC49619; Table 1; read-out: MIC S. pneumoniae ATCC 49619. The method, then: as §1, §4
Data set [13] deals with S. aureus ATCC 29213. As to the kind of experiment: Primary MIC assay, S. aureus ATCC 29213. To be noted: Staphylococcus aureus, ATCC29213; Table 1; read-out: MIC S. aureus ATCC 29213. It is filed as cell-based. The method, then: as §1, §4
Data set [14] deals with E. faecalis ATCC 29212. As to the kind of experiment: Primary MIC assay, E. faecalis ATCC 29212. It counts as cell-based, Enterococcus faecalis. To be noted: Enterococcus faecalis, ATCC29212; Table 1; read-out: MIC E. faecalis ATCC 29212. The method, then:
as §1, §4

Data set [15] has as its system K. pneumoniae ATCC 700603. Put plainly: CO-ADD MIC assay, K. pneumoniae ATCC 700603. It counts as cell-based. The note with it: Klebsiella pneumoniae, ATCC700603, Table S1, multi-drug resistant.
Text: as §1, §2, §3

For data set [16], the system named is A. baumannii ATCC 19606. Put plainly: CO-ADD MIC assay, A. baumannii ATCC 19606. It is filed as cell-based. To be noted: Acinetobacter baumannii, ATCC19606, Table S1.
Text: as §1, §2, §3

[17] abbreviates: Table 1, lysis of human erythrocytes.
Setting [18] is: Table S1, footnote says lysis of sheep erythrocytes.

Consider `CC(C)CCc1cnnn1-c1c(OCC(=O)N[C@H](CCCNC(=N)N)Cn2cc(C3CCCCC3)nn2)ccc2ccccc12` [Compound 24], for which the HC50 in data set [1] (setting [17]) and in data set [1] (setting [18]) was greater than 32 µg/mL each time. Besides, the minimal inhibitory concentration (MIC) was 32 µg/mL (≈ 52 µM) in [2]; 32 µg/mL (≈ 52 µM) in data set [3]; 32 µg/mL (≈ 52 µM) in data set [4]; greater than 32 µg/mL in data set [5]; 8 µg/mL (≈ 13 µM) in data set [6]; 8 µg/mL (≈ 13 µM) in [7]. The MIC worked out at 32 µg/mL (≈ 52 µM) in data set [8]; 32 µg/mL (≈ 52 µM) in [9]; 32 µg/mL (≈ 52 µM) in data set [11]; 8 µg/mL (≈ 13 µM) in data set [12]; 8 µg/mL (≈ 13 µM) in data set [13]; 8 µg/mL (≈ 13 µM) in data set [14]. Moreover, the MIC in data set [15] is greater than 32 µg/mL; in data set [16], 32 µg/mL (≈ 52 µM). Moreover, the CC50 in data set [10] turned out to be 21.9 µg/mL (≈ 35.6 µM).

For `CC(C)CCc1cnnn1-c1c(OCC(=O)N[C@H](CCCNC(=N)N)Cn2cc(CC3CCCCC3)nn2)ccc2ccccc12.Cl` [Compound 25], the concentration for 50% haemolysis (HC50) in [1] (setting [17]) and in data set [1] (setting [18]) was 10.6 µg/mL each time. Further, the MIC in data set [2] is 32 µg/mL; in [3], greater than 32 µg/mL; in data set [4] it was 16 µg/mL; in [5] it was 4 to 8 µg/mL; in [6] it was 4 µg/mL; in data set [7], 4 µg/mL. Further, the MIC worked out at 32 µg/mL in [8]; 64 µg/mL in data set [9]; 16 µg/mL in data set [11]; 8 µg/mL in data set [12]; 4 µg/mL in [13]; 8 µg/mL in data set [14]. The MIC in [15] was greater than 32 µg/mL; in data set [16], 32 µg/mL. For the same compound, the “MIC C. neoformans var. grubii ATCC 208821” value in [5] (Table S1) worked out at 8 µg/mL. The same compound came in with a CC50 in data set [10] greater than 32 µg/mL.

For the compound `CC(C)CCc1cnnn1-c1c(OCC(=O)N[C@H](CCCNC(=N)N)Cn2cc(Cc3ccccc3)nn2)ccc2ccccc12.Cl` [Compound 26], the HC50 in data set [1] (setting [17]) and in data set [1] (setting [18]) was greater than 32 µg/mL in each case. The MIC in data set [2] is greater than 32 µg/mL; in data set [3] it was greater than 32 µg/mL; in [4] it was 64 µg/mL; in [5], greater than 32 µg/mL; in [6], 8 µg/mL; in [7], 16 µg/mL. In addition, the MIC in data set [8] was 64 µg/mL; in data set [9], greater than 128 µg/mL; in data set [11], 32 µg/mL; in data set [12], 4 µg/mL; in [13] it was 8 µg/mL; in [14] it was 16 µg/mL. The MIC in data set [15] and in [16] was greater than 32 µg/mL throughout. The compound also came in with a half-maximal cytotoxic concentration (CC50) in data set [10] of 23.5 µg/mL.

Consider `CC(C)CCc1cn(-c2ccccc2OCC(=O)N[C@H](CCCCN)C(=O)N[C@H](CCCNC(=N)N)Cn2cc(Cc3ccccc3)nn2)nn1` [Compound 36], for which the HC50 in [1] (setting [17]) and in [1] (setting [18]) was greater than 32 µg/mL in each case. Besides, the MIC in [2] was greater than 32 µg/mL; in data set [3], greater than 32 µg/mL; in data set [4], 128 µg/mL (≈ 183 µM); in [5], 32 µg/mL (≈ 45.7 µM); in data set [6], 32 µg/mL (≈ 45.7 µM); in data set [7], 16 µg/mL (≈ 22.8 µM). Also, the MIC in data set [8] was found to be 128 µg/mL (≈ 183 µM); in data set [9], 128 µg/mL (≈ 183 µM); in data set [11], 16 µg/mL (≈ 22.8 µM); in data set [12], 16 µg/mL (≈ 22.8 µM); in [13], 32 µg/mL (≈ 45.7 µM); in data set [14], 64 µg/mL (≈ 91.3 µM). The MIC in [15] and in data set [16] was greater than 32 µg/mL in each case. In data set [10], this compound returned a CC50 greater than 32 µg/mL.

For `CC(C)CCc1cnnn1-c1ccccc1OCC(=O)N[C@H](CCCCN)C(=O)N[C@H](CCCNC(=N)N)Cn1cc(C2CCCCC2)nn1` [Compound 37], the HC50 in data set [1] (setting [17]) and in [1] (setting [18]) was greater than 32 µg/mL throughout. Besides, the MIC in data set [2] was greater than 32 µg/mL; in data set [3], greater than 32 µg/mL; in [4] it was 64 µg/mL (≈ 92.4 µM); in data set [5] it was 16 µg/mL (≈ 23.1 µM); in data set [6], 32 µg/mL (≈ 46.2 µM); in data set [7], 16 µg/mL (≈ 23.1 µM). Moreover, the MIC in [8] amounted to 64 µg/mL (≈ 92.4 µM); in [9], 64 µg/mL (≈ 92.4 µM); in data set [11], 16 µg/mL (≈ 23.1 µM); in data set [12], 8 µg/mL (≈ 11.5 µM); in data set [13] it was 16 µg/mL (≈ 23.1 µM); in [14], 16 µg/mL (≈ 23.1 µM). For the same compound, the MIC in data set [15] and in [16] was greater than 32 µg/mL each time. Further, the CC50 in [10] is greater than 32 µg/mL.
